The values below come from patent publication US11179369B2, “Sustained release pharmaceutical compositions” (Wyeth, LLC, priority 2003, dated 2021).

One data set in a line: Water solubility. Type of data set: physicochemical. As for the experimental part:
The tablet shapes and total tablet weights were kept same for all four different strengths and for the two different release rate tablets. […] In the formulations of aplindore fumarate 5.0 mg, 2.0 mg, 0.5 mg and 0.05 mg medium and slow release formulations, Lactose Fast Flo has been chosen as the water-soluble compensating excipient. […] It has been used in the 10.0 mg medium release formulation.

Data set [1] is described as follows: Side effects on dosing subject patients with aplindore. The format is in vivo, human. The settings on record: correlated with time period of maximal plasma levels. From the text:
In especially preferred embodiments of each of the formulations of the invention, the active compound is aplindore. Aplindore and pharmaceutically acceptable salts thereof are particularly well-suited to treating various disorders of the central nervous system and more particularly to those central nervous disorders relating to the dopaminergic system. Because aplindore (or any drug) requires a sufficient exposure level to achieve its desired effects, the drug must be dosed in a manner sufficient to achieve the particular blood plasma level over a period of time deemed sufficient to meet the clinical objective sought. […] Simply reducing the dose would not always be satisfactory since, while the side effects might lessen or disappear, the overall drug exposure levels might not be satisfactory to treat the particular condition.

The structures appear in SMILES notation.

On to `O=C(O)/C=C/C(=O)O.O=C1Cc2c(ccc3c2O[C@@H](CNCc2ccccc2)CO3)N1` [aplindore fumarate], for which the water solubility entry in the data set “Water solubility” is “highly water-soluble”. In the case of `O=C1Cc2c(ccc3c2O[C@@H](CNCc2ccccc2)CO3)N1` [aplindore, S-2-[(Benzylamino)-methyl]-2,3,8,9-tetrahydro-7H-1,4-dioxino[2,3-e]indol-8-one], the side effects entry in data set [1] was “side effects including nausea and vomiting”.
